Literature values as cited in patent US10744098B2, “Spray-dried solid-in-oil-in-water dispersions for inhalation of active pharmaceutical ingredients” (Novartis AG, priority 2014, dated 2020).

Target: β2-adrenoceptor (Homo sapiens, UniProt P07550)
Sequence (P07550 whole entry, species assumed): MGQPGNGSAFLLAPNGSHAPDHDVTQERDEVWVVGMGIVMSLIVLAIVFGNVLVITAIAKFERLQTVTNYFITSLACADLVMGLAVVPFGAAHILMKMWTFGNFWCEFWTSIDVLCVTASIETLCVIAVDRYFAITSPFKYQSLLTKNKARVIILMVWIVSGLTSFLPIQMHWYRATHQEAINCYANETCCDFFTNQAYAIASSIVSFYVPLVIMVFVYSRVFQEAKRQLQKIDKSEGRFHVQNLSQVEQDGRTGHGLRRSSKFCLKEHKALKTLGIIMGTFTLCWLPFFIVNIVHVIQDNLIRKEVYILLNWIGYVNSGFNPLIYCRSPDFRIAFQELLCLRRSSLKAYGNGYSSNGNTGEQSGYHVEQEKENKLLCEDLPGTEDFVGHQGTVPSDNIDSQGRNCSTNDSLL

duration of action: over 24 hours
onset of action: about 10 minutes
SMILES: CCc1cc2c(cc1CC)CC(NC[C@H](O)c1ccc(O)c3[nH]c(=O)ccc13)C2 [indacaterol, (R)-5-[2-(5,6-diethyl-indan-2-ylamino)-1-hydroxyethyl]-8-hydroxy-1H-quinolin-2-one]
